Source: patent US9233957B2, “5-carbamoyl-adamantan-2-yl amide derivatives, pharmaceutically acceptable salts thereof and preparation process thereof” (SK BIOPHARMACEUTICALS CO., LTD., priority 2011, dated 2016)

Key:
Human 11b-HSD1 = target: T1, Human 11b-HSD1 (Homo sapiens, UniProt P28845); test: Inhibition of cortisone-to-cortisol conversion in CHO-K1 cells over-expressing human 11b-HSD1 (HTRF cortisol assay); format: cell-based; settings: CHO-K1 cells over-expressing human 11b-HSD1, 160 nM cortisone, 3 hours, 37° C.
T1 construct: expressed in transfected cells
Source text: (§1) cDNA (human: Accession No. U12978.2; mouse: Accession No. NM_008288.2) coding the full-length amino acid sequence of 11β-HSD1 in a human and a mouse was incorporated into pMSCVpuro (from Clontech. Co. Ltd.), a vector of expressing a mammalian cell for the production of a retrovirus, and the resulting product was introduced into a GP2-293 cell (from Clontech Co. Ltd.), a retrovirus packing cell line together with pVSV-G vector (from Clontech Co. Ltd.) by using a Lipotamine plus reagent (from Invitrogen Co. Ltd.) in accordance with the method set forth in the appendix (by using HTRF cortisol assay kit from Cisbio assays Co., Ltd., catalog No. 62CO2PEB) and stabilized for 48 hours. Thereafter, viruses being obtained from those cells were used to infect CHO-K1 cell (from Korean Cell Line Bank, KCLB No. 10061) and in 24 hours, the cells were treated with 10 μg/ml pumycin (from Sigma Co. Ltd.) for two weeks to produce a stabilized cell system wherein each 11β-HSD1 in humans or in mice was over-expressed. When the cells being maintained, 5 μg/ml of puromycin was put into the medium and used (RPMI (Gibco), 37° C.). • Reference material: The EMBO Journal (2008) 27, 642-653
(§2) The obtained cells with 11b-HSD1 in a human and a mouse being over-expressed were sub-cultured in a 96-well plate with a cell number being 3×10^4 cells per well and stabilized for 24 hours [RPMI (Gibco), at 37° C., as being used in 5 days after thawing]. After a medium as diluted with DMSO including 160 nM of cortisone (from Sigma Co. Ltd.) and a test compound at a different concentration was put into each well in an amount of 200 ul, the well was cultured in a cell cultivator at 37° C. for 3 hours. 10 ul of the cultured solution was put into a 384 well plate and the amount of cortisol as generated was measured using a cortisol kit (from Cisbio international Co. Ltd, HTRF assay) in accordance with the method set forth in the appended manual.
(§3) As a control group, 160 nM of cortisone and 1% of DMSO were put into a corresponding well. The ground value was obtained from a well including only 160 nM of cortisone and 1% of DMSO without cells just like the control group. The calculation for a % inhibition level was made following the manual as appended. • Reference material: The Journal of Steroid Biochemistry and Molecular Biology, Volume 104, Issues 3-5, May 2007, Pages 123-129 • Bioorganic & Medicinal Chemistry Letters Volume 19, Issue 10, 15 May 2009, Pages 2674-2678
(§4) Like the analyzing method as stated above, the efficacy of inhibiting 11b-HSD1 was calculated as IC50 and the results are shown in Table 1: […]

Mouse 11b-HSD1 = target: T2, Mouse 11b-HSD1 (Mus musculus, UniProt P50172); test: Inhibition of cortisone-to-cortisol conversion in CHO-K1 cells over-expressing mouse 11b-HSD1 (HTRF cortisol assay); format: cell-based; settings: CHO-K1 cells over-expressing mouse 11b-HSD1, 160 nM cortisone, 3 hours, 37° C.
T2 construct: expressed in transfected cells
Source text: as §1, §2, §3, §4

T1 sequence (P28845 whole entry): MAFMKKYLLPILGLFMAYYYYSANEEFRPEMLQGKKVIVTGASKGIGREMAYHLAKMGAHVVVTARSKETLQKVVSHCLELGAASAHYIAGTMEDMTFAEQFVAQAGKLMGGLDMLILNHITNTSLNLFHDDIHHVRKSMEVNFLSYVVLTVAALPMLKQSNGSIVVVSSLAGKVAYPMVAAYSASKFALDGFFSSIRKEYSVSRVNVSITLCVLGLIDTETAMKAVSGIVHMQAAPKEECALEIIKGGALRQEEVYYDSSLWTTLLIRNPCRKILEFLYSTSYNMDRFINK
T2 sequence (P50172 whole entry): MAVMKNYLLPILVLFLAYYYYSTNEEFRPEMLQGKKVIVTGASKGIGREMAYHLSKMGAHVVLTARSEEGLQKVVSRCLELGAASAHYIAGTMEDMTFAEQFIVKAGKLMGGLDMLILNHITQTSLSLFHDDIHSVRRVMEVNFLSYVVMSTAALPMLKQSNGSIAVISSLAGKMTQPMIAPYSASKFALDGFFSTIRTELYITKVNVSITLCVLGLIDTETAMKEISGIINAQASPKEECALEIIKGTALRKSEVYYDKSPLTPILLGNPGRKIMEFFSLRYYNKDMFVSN

| Structure (SMILES) | IC50 (Human 11b-HSD1) [nM] | IC50 (Mouse 11b-HSD1) [nM] |
| --- | --- | --- |
| NC(=O)[C@]12CC3CC(C1)[C@@H](NC(=O)c1cccc(N4CCc5ccccc5C4)n1)C(C3)C2 [Example 61, N-(5-carbamoyl-2-adamantyl)6-(3,4-dihydro-1H-isoquinolin-2-yl)pyridine-2-carboxamide] | < 100 | < 100 |
| CCN(CC)c1cccc(C(=O)N[C@H]2C3CC4CC2C[C@](C(N)=O)(C4)C3)n1 [Example 59, N-(5-carbamoyl-2-adamantyl)-6-(diethylamino)pyridine-2-carboxamide] | < 100 | < 100 |
| NC(=O)[C@]12CC3CC(C1)[C@@H](NC(=O)c1cc(-c4ccc(Cl)cc4)on1)C(C3)C2 [Example 13, N-(5-carbamoyl-2-adamantyl)-5-(4-chlorophenyl)-1,2-oxazole-3-carboxamide] | 100 to 500 | > 500 |
| Cc1cccc(C(=O)N[C@H]2C3CC4CC2C[C@](C(N)=O)(C4)C3)[n+]1[O-] [Example 63, N-(5-carbamoyl-2-adamantyl)-6-methyl-1-oxidopyridine-1-ium-2-carboxamide] | 100 to 500 | > 500 |
| COc1cccc(C(=O)N[C@H]2C3CC4CC2C[C@](C(N)=O)(C4)C3)n1 [Example 45, N-(5-carbamoyl-2-adamantyl)-6-methoxypyridine-2-carboxamide] | < 100 | 100 to 500 |
| Cn1cccc1C(=O)N[C@H]1C2CC3CC1C[C@](C(N)=O)(C3)C2 [Example 17, N-(5-carbamoyl-2-adamantyl)-1-methylpyrrole-2-carboxamide] | > 500 | > 500 |
| COc1cccc2ccc(C(=O)N[C@H]3C4CC5CC3C[C@](C(N)=O)(C5)C4)nc12 [Example 50, N-(5-carbamoyl-2-adamantyl)-8-methoxyquinoline-2-carboxamide] | < 100 | 100 to 500 |
| COc1ccccc1-c1cc(C(=O)N[C@H]2C3CC4CC2C[C@](C(N)=O)(C4)C3)no1 [Example 7, N-(5-carbamoyl-2-adamantyl)-5-(2-methoxyphenyl)-1,2-oxazole-3-carboxamide] | > 500 | > 500 |
| NC(=O)[C@]12CC3CC(C1)[C@@H](NC(=O)c1ccc4cccc(OCc5ccccc5)c4n1)C(C3)C2 [Example 53] | < 100 | > 500 |
| NC(=O)[C@]12CC3CC(C1)[C@@H](NC(=O)c1cccc(N4CCCCC4)n1)C(C3)C2 [Example 58, N-(5-carbamoyl-2-adamantyl)-6-piperidin-1-yl-pyridine-2-carboxamide] | < 100 | < 100 |
| Cn1c(C(=O)N[C@H]2C3CC4CC2C[C@](C(N)=O)(C4)C3)ccc1-c1ccc(F)cc1 [Example 36, N-(5-carbamoyl-2-adamantyl)-5-(4-fluorophenyl)-1-methylpyrrole-2-carboxamide] | < 100 | < 100 |
| CCOc1cccc2ccc(C(=O)N[C@H]3C4CC5CC3C[C@](C(N)=O)(C5)C4)nc12 [Example 51, N-(5-carbamoyl-2-adamantyl)-8-ethoxyquinoline-2-carboxamide] | < 100 | < 100 |
| Cc1cccc(-c2cc(C(=O)N[C@H]3C4CC5CC3C[C@](C(N)=O)(C5)C4)no2)c1 [Example 6, N-(5-carbamoyl-2-adamantyl)-5-(3-methylphenyl)-1,2-oxazole-3-carboxamide] | > 500 | > 500 |
| CC(C)COc1cccc2ccc(C(=O)N[C@H]3C4CC5CC3C[C@](C(N)=O)(C5)C4)nc12 [Example 54, N-(5-carbamoyl-2-adamantyl)-8-(2-methylpropoxy)quinoline-2-carboxamide] | < 100 | > 500 |
| Cn1c(C(=O)N[C@H]2C3CC4CC2C[C@](C(N)=O)(C4)C3)ccc1-c1cccc(Cl)c1 [Example 33, N-(5-carbamoyl-2-adamantyl)-5-(3-chlorophenyl)-1-methylpyrrole-2-carboxamide] | < 100 | < 100 |
| NC(=O)[C@]12CC3CC(C1)[C@@H](NC(=O)c1ccc(-c4ccccc4F)s1)C(C3)C2 [Example 44, N-(5-carbamoyl-2-adamantyl)-5-(2-fluorophenyl)thiophene-2-carboxamide] | < 100 | < 100 |

| Structure (SMILES) | IC50 (Human 11b-HSD1) [nM] | IC50 (Mouse 11b-HSD1) [nM] |
| --- | --- | --- |
| NC(=O)[C@]12CC3CC(C1)[C@@H](NC(=O)c1ccc(-c4ccc([N+](=O)[O-])cc4)o1)C(C3)C2 [Example 3, N-(5-carbamoyl-2-adamantyl)-5-(4-nitrophenyl)furan-2-carboxamide] | < 100 | > 500 |
| NC(=O)[C@]12CC3CC(C1)[C@@H](NC(=O)c1ccc(-c4ccc(Cl)cc4)s1)C(C3)C2 [Example 41, N-(5-carbamoyl-2-adamantyl)-5-(4-chlorophenyl)thiophene-2-carboxamide] | < 100 | 100 to 500 |
| COc1ccc(-c2ccc(C(=O)N[C@H]3C4CC5CC3C[C@](C(N)=O)(C5)C4)o2)cc1 [Example 28, N-(5-carbamoyl-2-adamantyl)-5-(4-methoxyphenyl)furan-2-carboxamide] | < 100 | 100 to 500 |
| Cc1ccc(C(=O)N[C@H]2C3CC4CC2C[C@](C(N)=O)(C4)C3)s1 [Example 24, N-(5-carbamoyl-2-adamantyl)-5-methylthiophene-2-carboxamide] | < 100 | 100 to 500 |
| NC(=O)[C@]12CC3CC(C1)[C@@H](NC(=O)c1cccc(N4CCC(c5ccccc5)CC4)n1)C(C3)C2 [Example 62, N-(5-carbamoyl-2-adamantyl)-6-(4-phenylpiperidin-1-yl)pyridine-2-carboxamide] | < 100 | 100 to 500 |
| Cc1noc(C)c1COc1cccc(C(=O)N[C@H]2C3CC4CC2C[C@](C(N)=O)(C4)C3)n1 [Example 48, N-(5-carbamoyl-2-adamantyl)-6-[(3,5-dimethyl-1,2-oxazol-4-yl)methoxy]pyridine-2-carboxamide] | < 100 | – |
| CCC(C)Oc1cccc2ccc(C(=O)N[C@H]3C4CC5CC3C[C@](C(N)=O)(C5)C4)nc12 (stereo partly shown) [Example 56, 8-butan-2-yloxy-N-(5-carbamoyl-2-adamantyl)quinoline-2-carboxamide] | < 100 | 100 to 500 |
| NC(=O)[C@]12CC3CC(C1)[C@@H](NC(=O)c1ccc(-c4cccs4)s1)C(C3)C2 [Example 21, N-(5-carbamoyl-2-adamantyl)-5-thiophen-2-yl-thiophene-2-carboxamide] | < 100 | < 100 |
| Cn1c(C(=O)N[C@H]2C3CC4CC2C[C@](C(N)=O)(C4)C3)ccc1-c1ccc(C(F)(F)F)cc1 [Example 37, N-(5-carbamoyl-2-adamantyl)-1-methyl-5-[4-(trifluoromethyl)phenyl]pyrrole-2-carboxamide] | < 100 | 100 to 500 |
| NC(=O)[C@]12CC3CC(C1)[C@@H](NC(=O)c1ccc(-c4ccc(F)cc4)o1)C(C3)C2 [Example 25, N-(5-carbamoyl-2-adamantyl)-5-(4-fluorophenyl)furan-2-carboxamide] | < 100 | < 100 |
| CCCOc1cccc(C(=O)N[C@H]2C3CC4CC2C[C@](C(N)=O)(C4)C3)n1 [Example 46, N-(5-carbamoyl-2-adamantyl)-6-propoxypyridine-2-carboxamide] | < 100 | < 100 |
| NC(=O)[C@]12CC3CC(C1)[C@@H](NC(=O)c1ccc(-c4ccc(F)c(F)c4)o1)C(C3)C2 [Example 29, N-(5-carbamoyl-2-adamantyl)-5-(3,4-difluorophenyl)furan-2-carboxamide] | < 100 | 100 to 500 |
| Cc1ccccc1-c1cc(C(=O)N[C@H]2C3CC4CC2C[C@](C(N)=O)(C4)C3)no1 [Example 8, N-(5-carbamoyl-2-adamantyl)-5-(2-methylphenyl)-1,2-oxazole-3-carboxamide] | 100 to 500 | > 500 |
| NC(=O)[C@]12CC3CC(C1)[C@@H](NC(=O)c1cccc(OCc4ccccc4)n1)C(C3)C2 [Example 47, N-(5-carbamoyl-2-adamantyl)-6-phenylmethoxypyridine-2-carboxamide] | < 100 | 100 to 500 |
| NC(=O)[C@]12CC3CC(C1)[C@@H](NC(=O)c1cc(-c4cccc(F)c4)on1)C(C3)C2 [Example 12, N-(5-carbamoyl-2-adamantyl)-5-(3-fluorophenyl)-1,2-oxazole-3-carboxamide] | > 500 | > 500 |
